In PubChem BioAssay AID192 (DTP/NCI, 2004):
Values joined by “and” are separate entries in the source; they are usually repeats but may differ in a detail not shown here. Identical values can stand only once. Inconclusive results and toxic doses are left out. How the source made its calls: active means survival T/C of 150% or more; inactive means T/C below 125% in these data.

System: BDF1 mice, B16 melanoma ip, median survival T/C
Assay: NCI In Vivo Anticancer Drug Screen. Data for tumor model B16 Melanoma (intraperitoneal) in B6D2F1 (BDF1) mice
Settings: endpoint: median survival time, higher = longer survival
How it was run: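 In this screen, activity was judged from survival or tumor size in treated versus vehicle-treated tumor-bearing mice, reported as T/C.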

[1] = dose: 50.0 mg/kg/injection, schedule: Q01DX009 (ip), vehicle: Klucel (hydroxypropylcellulose) (HPC)
[2] = dose: 100.0 mg/kg/injection, schedule: Q01DX009 (ip), vehicle: Klucel (hydroxypropylcellulose) (HPC)
[3] = dose: 25.0 mg/kg/injection, schedule: Q01DX009 (ip), vehicle: saline
[4] = dose: 50.0 mg/kg/injection, schedule: Q01DX009 (ip), vehicle: saline
[5] = dose: 200.0 mg/kg/injection, schedule: Q01DX009 (ip), vehicle: saline
[6] = dose: 25.0 mg/kg/injection, schedule: Q01DX009 (ip), vehicle: saline with Tween-80
[7] = dose: 50.0 mg/kg/injection, schedule: Q01DX009 (ip), vehicle: saline with Tween-80
[8] = dose: 100.0 mg/kg/injection, schedule: Q01DX009 (ip), vehicle: saline with Tween-80
[9] = dose: 6.25 mg/kg/injection, schedule: Q01DX009 (ip), vehicle: saline
[10] = dose: 200.0 mg/kg/injection, schedule: Q01DX009 (ip), vehicle: saline with Tween-80
[11] = dose: 12.5 mg/kg/injection, schedule: Q01DX009 (ip), vehicle: saline with Tween-80
[12] = dose: 25.0 mg/kg/injection, schedule: Q04DX003 (ip), vehicle: saline with Tween-80
[13] = dose: 50.0 mg/kg/injection, schedule: Q04DX003 (ip), vehicle: saline with Tween-80
[14] = dose: 100.0 mg/kg/injection, schedule: Q04DX003 (ip), vehicle: saline with Tween-80

Measured: T/C

CCCN(/C=C/C=C/C=[N+](CCC)CCC)CCC
inactive: dose: 0.03 mg/kg/injection, schedule: Q01DX009 (ip), vehicle: saline 107 % of control | dose: 0.05 mg/kg/injection, schedule: Q01DX009 (ip), vehicle: saline 109 % of control | dose: 0.1 mg/kg/injection, schedule: Q01DX009 (ip), vehicle: saline 103 % of control | dose: 0.2 mg/kg/injection, schedule: Q01DX009 (ip), vehicle: saline 96 % of control

CS(=O)(=O)c1ccnc2ccccc12
inactive: [1] 91 % of control | [2] 90 % of control

CN1CCC=C(CN(c2ccccc2)c2ccccc2)C1
inactive: [3] 92 % of control | [4] 89 % of control | dose: 100.0 mg/kg/injection, schedule: Q01DX009 (ip), vehicle: saline 92 % of control

COC(=O)CCC1=C(C)c2cc3[n-]c(cc4nc(cc5[n-]c(cc1n2)c(CCC(=O)OC)c5C)C=C4C)cc3C.[Ni+2]
inactive: dose: 1.56 mg/kg/injection, schedule: Q01DX009 (ip), vehicle: saline with Tween-80 91 % of control | dose: 3.13 mg/kg/injection, schedule: Q01DX009 (ip), vehicle: saline with Tween-80 88 % of control | dose: 6.25 mg/kg/injection, schedule: Q01DX009 (ip), vehicle: saline with Tween-80 86 % of control

CO[C@H]1/C=C/O[C@@]2(C)Oc3c(C)c(O)c4c(O)c(c(/C=N/N5C(C)CN(Cc6ccccc6)CC5C)c(O)c4c3C2=O)NC(=O)/C(C)=C\C=C\[C@H](C)[C@H](O)[C@@H](C)[C@@H](O)[C@@H](C)[C@H](OC(C)=O)[C@@H]1C (stereo partly drawn)
inactive: dose: 8.0 mg/kg/injection, schedule: Q03HX008 (ip), vehicle: clinical formulation 94 % of control | dose: 8.0 mg/kg/injection, schedule: Q03HX024 (ip), vehicle: clinical formulation 88 % of control | dose: 16.0 mg/kg/injection, schedule: Q03HX008 (ip), vehicle: clinical formulation 90 % of control | dose: 25.0 mg/kg/injection, schedule: Q02DX Z (oral), vehicle: Klucel (hydroxypropylcellulose) (HPC) 98 % of control | dose: 32.0 mg/kg/injection, schedule: Q03HX024 (ip), vehicle: clinical formulation 88 % of control | [4] 123 % of control | dose: 50.0 mg/kg/injection, schedule: Q02DX Z (oral), vehicle: Klucel (hydroxypropylcellulose) (HPC) 116 % of control | dose: 64.0 mg/kg/injection, schedule: Q04DX005 (ip), vehicle: clinical formulation 93 % of control | dose: 64.0 mg/kg/injection, schedule: Q08DX003 (ip), vehicle: clinical formulation 91 % of control | dose: 100.0 mg/kg/injection, schedule: Q02DX Z (oral), vehicle: Klucel (hydroxypropylcellulose) (HPC) 103 % of control | [5] 110 % of control | dose: 200.0 mg/kg/injection, schedule: Q02DX Z (oral), vehicle: Klucel (hydroxypropylcellulose) (HPC) 114 % of control | dose: 256.0 mg/kg/injection, schedule: Q01DX001 (ip), vehicle: clinical formulation 86 % of control | dose: 400.0 mg/kg/injection, schedule: Q02DX Z (oral), vehicle: Klucel (hydroxypropylcellulose) (HPC) 88 % of control | dose: 800.0 mg/kg/injection, schedule: Q02DX Z (oral), vehicle: Klucel (hydroxypropylcellulose) (HPC) 113 % of control | dose: 1600.0 mg/kg/injection, schedule: Q02DX Z (oral), vehicle: Klucel (hydroxypropylcellulose) (HPC) 97 % of control

CC(=O)NC(CC(C)C)C(=O)O (stereo not drawn)
inactive: [6] 108 % of control | [7] 121 % of control | [8] 101 % of control

NC(N)=Nc1ccc(C(=O)Oc2ccc([N+](=O)[O-])cc2CN2CCCCC2)cc1
inactive: dose: 3.13 mg/kg/injection, schedule: Q01DX009 (ip), vehicle: saline 100 % of control | [9] 100 % of control

CCOc1ccc2cc(S(=O)(=O)O)ccc2c1N
inactive: [8] 95 % of control | [10] 87 % of control | dose: 400.0 mg/kg/injection, schedule: Q01DX009 (ip), vehicle: saline with Tween-80 95 % of control

Oc1c(Cl)c(Cl)c(Cl)c(Cl)c1Cl (tested in a mixture with another compound)
inactive: [11] 107 % of control | dose: 12.5 mg/kg/injection, schedule: Q04DX003 (ip), vehicle: saline with Tween-80 122 % of control | [6] 115 % of control | [12] 102 % of control | [7] 121 % of control | [13] 102 % of control

O=c1oc(/C=C/c2ccccc2)nc2cc(Cl)ccc12
inactive: [2] 109 % of control

O=C(O)CC1(CC(=O)O)CCCCC1
inactive: [7] 100 % of control | [8] 98 % of control

NC1=NCN(C2OC(CO)C(O)C2O)C(=O)N1 (stereo not drawn)
inactive: dose: 1.56 mg/kg/injection, schedule: Q01DX009 (ip), vehicle: saline 92 % of control and 110 % of control | dose: 3.12 mg/kg/injection, schedule: Q01DX009 (ip), vehicle: saline 96 % of control | dose: 3.12 mg/kg/injection, schedule: Q01DX009 (ip), vehicle: suspension in saline 93 % of control | [9] 94 % of control and 110 % of control | dose: 6.25 mg/kg/injection, schedule: Q01DX009 (ip), vehicle: suspension in saline 110 % of control | dose: 12.5 mg/kg/injection, schedule: Q01DX009 (ip), vehicle: saline 110 % of control | dose: 12.5 mg/kg/injection, schedule: Q01DX009 (ip), vehicle: suspension in saline 110 % of control | [3] 94 % of control and 111 % of control | dose: 25.0 mg/kg/injection, schedule: Q01DX009 (ip), vehicle: suspension in saline 89 % of control | [4] 111 % of control | [5] 111 % of control and 119 % of control

C=C(C)C(=O)Nc1c(C)cccc1C
inactive: [1] 102 % of control | [2] 107 % of control | dose: 200.0 mg/kg/injection, schedule: Q01DX009 (ip), vehicle: Klucel (hydroxypropylcellulose) (HPC) 108 % of control

COC(=O)N1CC=CCN1C(=O)OC
inactive: [14] 102 % of control | dose: 200.0 mg/kg/injection, schedule: Q04DX003 (ip), vehicle: saline with Tween-80 102 % of control | dose: 400.0 mg/kg/injection, schedule: Q04DX003 (ip), vehicle: saline with Tween-80 94 % of control

[N-]=[N+]=C1N=CN=C1c1ncn[nH]1
inactive: dose: 3.12 mg/kg/injection, schedule: Q01DX009 (ip), vehicle: carboxymethylcellulose (CMC) 107 % of control | dose: 6.25 mg/kg/injection, schedule: Q01DX009 (ip), vehicle: carboxymethylcellulose (CMC) 119 % of control

CC1(C)N=C(N)N=C(N)N1c1ccc(CCc2ccccc2)cc1
inactive: dose: 0.75 mg/kg/injection, schedule: Q01DX009 (ip), vehicle: saline with Tween-80 97 % of control | dose: 1.5 mg/kg/injection, schedule: Q01DX009 (ip), vehicle: saline with Tween-80 100 % of control | dose: 3.0 mg/kg/injection, schedule: Q01DX009 (ip), vehicle: saline with Tween-80 102 % of control | dose: 6.0 mg/kg/injection, schedule: Q01DX009 (ip), vehicle: saline with Tween-80 95 % of control

CC(C)=CN1CCCCC1
inactive: [11] 101 % of control | [6] 105 % of control | [12] 104 % of control | [7] 108 % of control | [13] 109 % of control | [14] 90 % of control | [10] 86 % of control

COC(=O)C1Oc2ccc(Cl)cc2Cc2cc(Cl)ccc2O1
inactive: dose: 2.5 mg/kg/injection, schedule: Q01DX009 (ip), vehicle: Klucel (hydroxypropylcellulose) (HPC) 91 % of control | dose: 5.0 mg/kg/injection, schedule: Q01DX009 (ip), vehicle: Klucel (hydroxypropylcellulose) (HPC) 99 % of control | dose: 10.0 mg/kg/injection, schedule: Q01DX009 (ip), vehicle: Klucel (hydroxypropylcellulose) (HPC) 93 % of control and 99 % of control
